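A five-concentration, 48-hour dose response in 96-well plates underlies each endpoint, interpolated linearly between surrounding concentrations. GI50 marks 50% less growth. TGI marks complete inhibition of growth.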
Tests used:
Experiment in all cases: growth of human tumour cells (NCI), 48 h
[1] = system: SF-539 CNS
[2] = system: K-562 leukemia
[3] = system: IGROV1 ovarian
[4] = system: A498 renal
[5] = system: RPMI-8226 leukemia
[6] = system: T-47D breast
[7] = system: SW-620 colon
[8] = system: 786-0 renal
[9] = system: UACC-257 melanoma
[10] = system: RXF 393 renal

SMILES	GI50 [1]	TGI [1]	GI50 [2]	TGI [2]	GI50 [3]	TGI [3]	GI50 [4]	TGI [4]	GI50 [5]	TGI [5]	GI50 [6]	TGI [6]	GI50 [7]	TGI [7]	GI50 [8]	TGI [8]	GI50 [9]	TGI [9]	GI50 [10]	TGI [10]
COc1cnc2c(c1)C(=O)c1c-2n(CCCNC(C)C)c(=O)c2cc(Cl)ccc12	0.554 µM	1.87 µM	0.451 µM	2.13 µM	0.756 µM	2.32 µM	0.334 µM	5.27 µM	1.21 µM	3.35 µM	0.278 µM	2.55 µM	0.0503 µM	1.71 µM	0.438 µM	1.98 µM	12.1 µM	32.8 µM	0.568 µM	2.01 µM
C=C1CC[C@@H]2[C@](C)(COC(C)=O)[C@H](OC(C)=O)CC[C@@]2(C)[C@@H]1CC(Sc1ccccc1)C1=CCOC1=O (stereo partly specified)	–	–	0.699 µM	3.69 µM	–	–	2.3 µM	14 µM	0.343 µM	2.73 µM	2.01 µM	8.32 µM	0.716 µM	3.64 µM	1.9 µM	3.64 µM	1.91 µM	3.71 µM	1.62 µM	3.12 µM
COc1cc(C#CC(=O)OC/C=C/c2ccc3c(c2)OCO3)cc(OC)c1OC	–	44.5 µM	–	58.1 µM	–	–	–	21.5 µM	–	51.8 µM	–	> 100 µM	–	80.6 µM	–	> 100 µM	–	70.9 µM	–	30.2 µM
CC(C)N(C(=O)C12C3C4C5(C#N)C3C1(C#N)C5C42I)C(C)C (stereo unspecified)	–	> 100 µM	–	> 59.4 µM	–	> 100 µM	–	> 100 µM	–	> 66.6 µM	–	–	–	> 66 µM	–	> 100 µM	–	> 100 µM	–	> 100 µM
O=C(/C=C/c1ccccc1O)c1ccccc1O	–	> 100 µM	–	> 100 µM	–	> 100 µM	–	> 100 µM	–	> 100 µM	–	–	–	> 100 µM	–	> 100 µM	–	> 100 µM	–	> 100 µM
COc1ccc(C(C)=O)cc1N1C(=O)C2C(C1=O)C1(c3ccccc3)C(=O)C2(c2ccccc2)C(c2ccc(C)cc2)=C1c1ccc(C)cc1 (stereo unspecified)	> 100 µM	> 100 µM	> 100 µM	> 100 µM	> 100 µM	> 100 µM	–	–	> 100 µM	> 100 µM	> 100 µM	> 100 µM	> 100 µM	> 100 µM	> 100 µM	> 100 µM	> 100 µM	> 100 µM	> 100 µM	> 100 µM
S=C1NC2(CCCCCC2)NN1c1ccccc1	–	–	–	16.6 µM	–	> 100 µM	–	> 100 µM	–	> 100 µM	–	> 100 µM	–	> 100 µM	–	> 100 µM	–	> 100 µM	–	–
CCC[CH2][Sn]1([CH2]CCC)[O]N=C(c2ccccc2)C(c2ccccc2)[O]1 (stereo unspecified)	1.79 µM	3.39 µM	0.387 µM	2.38 µM	1.89 µM	3.9 µM	2.59 µM	4.82 µM	0.588 µM	4.38 µM	–	–	0.989 µM	2.27 µM	1.45 µM	2.83 µM	2.02 µM	4.51 µM	1.5 µM	2.87 µM
CCCN=C(N)NC#N	–	> 100 µM	–	> 100 µM	–	> 100 µM	–	> 100 µM	–	> 100 µM	–	–	–	30.8 µM	–	65.1 µM	–	> 100 µM	–	> 100 µM
